Test results as given in the supplement of paper PMC11061612.

Key:
[1] = compound: CN(C)CCCOc1ccc(-c2ccc3ncc4c(c3c2)n(C2CCOCC2)c(=O)n4C)cn1 [AZD0156]; conditions: max 3 µM
How it was run: (§1)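 Cancer cell lines were seeded in 1536-well plates in 7.5 μl DMEM/F12 or RPMI with 10% FBS, held 24 hours at 37°C and 5% CO2, then dosed for 72 hours (final DMSO typically 0.2%). Viability was read by CellTiter-Glo 2.0 luminescence and scaled between blank-well and DMSO-well means. The single-agent IC50 comes from dose responses fitted to a two-parameter logistic curve with a non-linear mixed effects model.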

[2] = compound: C[C@@H](Oc1cc(-c2cnn(C3CCNCC3)c2)cnc1N)c1c(Cl)ccc(F)c1Cl [Crizotinib]; conditions: max 10 µM
How it was run: as §1

[3] = compound: Cc1c2c(nn1C)CSCc1cc(n(C)n1)CSc1cc(c3ccccc3c1)OCCCc1c(C(=O)O)n(C)c3c-2c(Cl)ccc13 [AZD5991]; conditions: max 1 µM
How it was run: as §1

[4] = compound: CC(=O)Nc1cccc(-n2c(=O)n(C3CC3)c(=O)c3c(Nc4ccc(I)cc4F)n(C)c(=O)c(C)c32)c1 [Trametinib]; conditions: max 1 µM
How it was run: as §1

[5] = compound: C[C@@H]1COCCN1C2=NC(=NC(=C2)C3(CC3)[S@](=N)(=O)C)C4=C5C=CNC5=NC=C4 [AZD6738]; conditions: max 10 µM
How it was run: as §1

[6] = compound: CN(CC[C@H](CSC1=CC=CC=C1)NC2=C(C=C(C=C2)S(=O)(=O)NC(=O)C3=CC=C(C=C3)N4CCC(CC4)[C@H](C5=CC=CC=C5C6=CC=C(C=C6)Cl)O)S(=O)(=O)C(F)(F)F)CCO [AZD4320]; conditions: max 1 µM
How it was run: as §1

[7] = compound: CC1(C)CCC(CN2CCN(c3ccc(C(=O)NS(=O)(=O)c4ccc(NCC5CCOCC5)c([N+](=O)[O-])c4)c(Oc4cnc5[nH]ccc5c4)c3)CC2)=C(c2ccc(Cl)cc2)C1 [Venetoclax]; conditions: max 1 µM
How it was run: as §1

[8] = compound: C1CN(CCC1(C(=O)N[C@@H](CCO)C2=CC=C(C=C2)Cl)N)C3=NC=NC4=C3C=CN4 [Capivasertib]
How it was run: as §1

[9] = compound: Cc1nc(-c2cn3c(n2)-c2ccc(-c4cnn(C(C)(C)C(N)=O)c4)cc2OCC3)n(C(C)C)n1 [Taselisib]; conditions: max 10 µM
How it was run: as §1

[10] = compound: Cc1cc2ncnn2cc1Nc1ncc2c(n1)n(C1CCOCC1)c(=O)n2C [AZD7648]; conditions: max 10 µM
How it was run: as §1

[11] = compound: C[C@@H](c1ccc2nccn2c1)n1nnc2ncc(-c3cnn(C)c3)nc21 [Savolitinib]; conditions: max 1 µM
How it was run: as §1

[12] = compound: CCc1c2c(nc3ccc(O)cc13)-c1cc3c(c(=O)n1C2)COC(=O)[C@]3(O)CC [SN-38]; conditions: max 0.3 µM
How it was run: as §1

[13] = compound: CC(=O)c1c(C)c2cnc(Nc3ccc(N4CCNCC4)cn3)nc2n(C2CCCC2)c1=O [Palbociclib]; conditions: max 10 µM
How it was run: as §1

[14] = compound: COc1cc2ncnc(Nc3ccc(F)c(Cl)c3)c2cc1OCCCN1CCOCC1 [Gefitinib]; conditions: max 10 µM
How it was run: as §1

[15] = compound: CC1=C(C(=CC=C1)Cl)NC(=O)C2=CN=C(S2)NC3=CC(=NC(=N3)C)N4CCN(CC4)CCO [Dasatinib]; conditions: max 2 µM
How it was run: as §1

[16] = compound: Cn1cnc2c(F)c(Nc3ccc(Br)cc3Cl)c(C(=O)NOCCO)cc21 [Selumetinib]; conditions: max 10 µM
How it was run: as §1

[17] = compound: CS(=O)(=O)CCNCc1ccc(-c2ccc3ncnc(Nc4ccc(OCc5cccc(F)c5)c(Cl)c4)c3c2)o1 [Lapatinib]; conditions: max 10 µM
How it was run: as §1

[18] = compound: CCN(CCO)CCCOc1ccc2c(Nc3cc(CC(=O)Nc4cccc(F)c4)[nH]n3)ncnc2c1 [AZD2811]; conditions: max 1 µM
How it was run: as §1

[19] = compound: C[C@@H](Nc1cc(F)cc(F)c1)c1cc(C(=O)N(C)C)cc2c(=O)cc(N3CCOCC3)oc12 [AZD8186]; conditions: max 3 µM
How it was run: as §1

[20] = compound: COc1cccc2c1C(=O)c1c(O)c3c(c(O)c1C2=O)C[C@@](O)(C(=O)CO)C[C@@H]3O[C@H]1C[C@H](N)[C@H](O)[C@H](C)O1 [Doxorubicin]; conditions: max 1 µM
How it was run: as §1

[21] = compound: COc1nnc2ccc(N3CCC(c4ccc(OCCN5CCN(C)C(=O)[C@H]5C)cc4)CC3)nn12 [AZD5153]; conditions: max 1 µM
How it was run: as §1

[22] = compound: CC(C)n1c(=O)n(C)c2cnc3cc(F)c(-c4ccc(OCCCN5CCCCC5)nc4)cc3c21 [AZD1390]; conditions: max 0.3 µM
How it was run: as §1

[23] = compound: CC1=CN2[C@@H](C1)C=NC3=CC(=C(C=C3C2=O)OC)OCCCCCOC4=C(C=C5C(=C4)N=C[C@@H]6CC(=CN6C5=O)C)OC [SG3199]; conditions: max 0.001 µM
How it was run: as §1

[24] = compound: C=CCn1c(=O)c2cnc(Nc3ccc(N4CCN(C)CC4)cc3)nc2n1-c1cccc(C(C)(C)O)n1 [AZD1775]; conditions: max 3 µM
How it was run: as §1

[25] = compound: COc1cccc(OCCCN)c1-c1cc(Nc2cnc(C#N)cn2)n[nH]1 [Prexasertib]; conditions: max 1 µM
How it was run: as §1

[26] = compound: COc1cc(Nc2ncc3c(n2)-c2ccc(Cl)cc2C(c2c(F)cccc2OC)=NC3)ccc1C(=O)O [Alisertib]; conditions: max 10 µM
How it was run: as §1

[27] = compound: O=C(c1cc(Cc2n[nH]c(=O)c3ccccc23)ccc1F)N1CCN(C(=O)C2CC2)CC1 [Olaparib]
How it was run: as §1

| Cell Line | IC50, cell viability 72 h [1] [µM] | IC50, cell viability 72 h [2] [µM] | IC50, cell viability 72 h [3] [µM] | IC50, cell viability 72 h [4] [µM] | IC50, cell viability 72 h [5] [µM] | IC50, cell viability 72 h [6] [µM] | IC50, cell viability 72 h [7] [µM] | IC50, cell viability 72 h ([8]; max 10 µM) [µM] | IC50, cell viability 72 h [9] [µM] | IC50, cell viability 72 h [10] [µM] | IC50, cell viability 72 h [11] [µM] | IC50, cell viability 72 h [12] [µM] | IC50, cell viability 72 h [13] [µM] | IC50, cell viability 72 h [14] [µM] | IC50, cell viability 72 h [15] [µM] | IC50, cell viability 72 h [16] [µM] | IC50, cell viability 72 h [17] [µM] | IC50, cell viability 72 h [18] [µM] | IC50, cell viability 72 h [19] [µM] | IC50, cell viability 72 h [20] [µM] | IC50, cell viability 72 h [21] [µM] | IC50, cell viability 72 h [22] [µM] | IC50, cell viability 72 h [23] [µM] | IC50, cell viability 72 h [24] [µM] | IC50, cell viability 72 h [25] [µM] | IC50, cell viability 72 h [26] [µM] | IC50, cell viability 72 h ([27]; max 10 µM) [µM] | IC50, cell viability 72 h ([8]; max 3 µM) [µM] | IC50, cell viability 72 h ([27]; max 3 µM) [µM] |
| --- | --- | --- | --- | --- | --- | --- | --- | --- | --- | --- | --- | --- | --- | --- | --- | --- | --- | --- | --- | --- | --- | --- | --- | --- | --- | --- | --- | --- | --- |
| ARH-77 (Non-Cancerous) | 1.79 | > 10 | 0.229 | > 1 | 1.85 | 0.1 | > 1 | 1.76 | 0.528 | > 10 | > 1 | 0.00668 | > 10 | > 10 | 0.233 | > 10 | 8.04 | > 1 | 1.27 | 0.143 | 0.0618 | > 0.3 | > 0.001 | 0.189 | 0.0155 | 1.17 | > 10 | – | – |
| BT-483 (Breast Carcinoma) | > 3 | – | – | – | – | – | – | – | – | – | – | – | – | – | – | – | – | – | – | – | – | – | – | > 3 | – | – | – | > 3 | > 3 |
| CAL-29 (Bladder Carcinoma) | > 3 | > 10 | > 1 | > 1 | 6.08 | > 1 | > 1 | > 10 | 0.218 | > 10 | > 1 | 0.0143 | > 10 | > 10 | > 2 | > 10 | > 10 | > 1 | > 3 | > 1 | > 1 | > 0.3 | > 0.001 | 0.762 | 0.0418 | > 10 | > 10 | – | – |
| CAS-1 (Glioblastoma) | > 3 | > 10 | > 1 | 0.465 | > 10 | > 1 | > 1 | 7.05 | > 10 | > 10 | > 1 | 0.202 | > 10 | > 10 | 0.931 | > 10 | > 10 | > 1 | > 3 | > 1 | 0.345 | > 0.3 | > 0.001 | 1.6 | 0.158 | 4.13 | > 10 | – | – |
| COLO-824 (Breast Carcinoma) | > 3 | 4.32 | > 1 | > 1 | 5.51 | 0.0333 | 0.214 | 7.34 | 2.46 | > 10 | > 1 | > 0.3 | > 10 | > 10 | > 2 | > 10 | 7.96 | 0.0558 | > 3 | > 1 | 0.233 | > 0.3 | > 0.001 | 0.868 | 0.0646 | 3.01 | > 10 | – | – |
